{
  "source": "patent EP0473671B1",
  "about": "“USE OF SIGMA-RECEPTORS LIGANDS FOR THE MANUFACTURE OF AN ANXIOLYTIC AGENT” (STATE OF OREGON BY AND THROUGH OREGON STATE BOARD OF HIGHER …, priority 1989, dated 1990)",
  "key": {"[1]": {"molecular_target": "sigma receptors", "test": "Sigma receptor binding assay, displacement of [³H]DTG", "conditions": "guinea pig brain membrane homogenates, radioligand [³H]DTG […], 90 minutes at room temperature; read-out: IC₅₀ binding values", "experimental": "Briefly, frozen whole guinea-pig brains (Biotrol, Indianapolis, IN) were homogenized in 10 volumes (w/v) of ice-cold 320 mM sucrose using a Brinkman polytron. The homogenate was centrifuged at 1,000 x g for 20 minutes at 4°C. The supernatant was centrifuged at 20,000 x g for 20 minutes at 4°C. The resulting pellet was resuspended in 10 initial volumes of 50 mM Tris/HCl buffer at pH 7.4 and centrifuged at 20,000 x g for 20 minutes at 4°C. The resulting pellet was resuspended in 5 initial volumes ice-cold 50mM Tris/Hcl (pH .4), and the final volume was adjusted to yield a protein concentration of 3 mg/ml, as determined by dye-binding protein assay (Biorad) using BSA as the standard.\nIncubations were terminated after 90 minutes at room temperature by addition of 4 ml of ice-cold 50mM Tris/HCl (pH 7.4) and rapid filtration of the membrane suspension through Whatman GF/B glass-fiber filters under vacuum, using a 48-well cell harvester (Brandel, Gaithersburg, MD). The filters were washed 2 times with 4 ml of 50 mM Tris/HCl (pH 7.4). Total filtration and washing time was less than 20 seconds. Each filter was dissolved in 10 ml Cytoscint (Westchem, San Diego, CA), and radioactivity was measured by liquid scintillation spectrometry at a counting efficiency of approximately 50%. IC₅₀ values were determined by interpolation from displacement-curve plots on semilogarithmic graph paper."}, "[2]": {"tested_on": "male albino BKW mice", "test": "Light/dark exploration of mice (black:white test box)", "conditions": "for numbers of rears and line crossings compared with controls (sedation): not sedative at the dosage level; for latency to entering the dark compartment / numbers of rears and line crossings at the highest dose (sedation): subcutaneously; for numbers of rears and line crossings at the highest dose (sedation): 0.1 mg/kg, drug not sedative at this level"}, "[3]": {"tested_on": "Male Hooded Lister rats", "test": "Rat social interaction test", "format": "in vivo", "conditions": "for social interactions: 40 min. before testing, 10 min session, n = 6", "source_text": "A second preferred animal model is the rat social interaction test described by Jones, B.J. et al., supra, wherein the time that two mice spend in social interaction is quantified. […] Both the familiarity and the light level of the test arena may be manipulated. Undrugged rats show the highest level of social interaction when the test arena is familiar and is lit by low light. Social interaction declines if the arena is unfamiliar to the rats or is lit by bright light. Anxiolytic agents prevent this decline. The overall level of motor activity may also be measured to allow detection of drug effects specific to social behaviors.\nMale Hooded Lister rats (Glaxo bred, 200-250g), were housed 5 to a cage and were kept in the laboratory environment for at least a week before testing. Rats paired in the test were taken from separate cages.\nThe test arena consisted of an open-topped box, 62 x 62 x 33 cm with a 7 x 7 matrix of infra-red photocell beams in the walls, 2.5 cm from the floor.\nTesting involved placing each member of a pair of rats in opposite corners of the arena and then leaving them undisturbed for 10 min. while recording their behavior remotely on videotape. The behavioral assessments were made subsequently from the recordings. The time spent in social interaction was measured and expressed as a cumulative total for the 10 min session. The behaviors that comprised social interaction were: following with contact, sniffing (but not sniffing of the hindquarters), crawling over and under, tumbling, boxing and grooming.\nN-adamantyl-N'-o-tolylguanidine was tested over the range of 0.001-0.1 mg/kg."}, "[4]": {"tested_on": "male albino BKW mice", "conditions": "mouse, in vivo"}, "[5]": {"conditions": "subcutaneously 40 min before testing, 0.01 ug to 0.1 mg/kg"}, "[6]": {"conditions": "0.01 ug to 0.1 mg/kg, result in words"}},
  "note": "Where two headings read alike, the source gives them in different places.",
  "data": [
    {"compound": "N=C(Nc1ccccc1I)N[C@@H]1C[C@@H]2CC[C@H]1C2", "note": "(racemic) [N-((±)-endo-2-norbornyl)-N'-(2-iodophenyl)guanidine]", "values": [
      {"measurement": "IC50", "setting": "[1]", "value": 5, "unit": "nM"}
    ]},
    {"compound": "Cc1ccccc1NC(=N)N[C@@H]1C[C@@H]2CC[C@H]1C2", "note": "(racemic) [N-((±)-endo-2-norbornyl)-N'-(2-methylphenyl)guanidine]", "values": [
      {"measurement": "IC50", "setting": "[1]", "value": 6, "unit": "nM"}
    ]},
    {"compound": "N=C(Nc1ccccc1I)N[C@H]1C[C@@H]2CC[C@H]1C2", "note": "(relative stereo) [N-(exo-2-norbornyl)-N'-(2-iodophenyl)guanidine]", "values": [
      {"measurement": "IC50", "setting": "[1]", "value": 4, "unit": "nM"}
    ]},
    {"compound": "Cc1ccccc1NC(=N)N[C@H]1C[C@@H]2CC[C@H]1C2", "note": "(relative stereo) [N-(exo-2-norbornyl)-N'-(2-methylphenyl)guanidine]", "values": [
      {"measurement": "IC50", "setting": "[1]", "value": 7, "unit": "nM"}
    ]},
    {"compound": "CCCN1CCC[C@@H](c2cccc(O)c2)C1", "note": "[(-)-3-PPP, reference compound]", "values": [
      {"measurement": "IC50", "setting": "[1]", "value": "280 ± 21", "unit": "nM"}
    ]},
    {"compound": "C=CCN1CC[C@@]2(C)c3cc(O)ccc3C[C@@H]1[C@@H]2C", "note": "[(-)-SKF10047, reference compound]", "values": [
      {"measurement": "IC50", "setting": "[1]", "value": "4000 ± 566", "unit": "nM"}
    ]},
    {"compound": "N=C(NC1CCCCC1)NC12CC3CC(CC(C3)C1)C2", "note": "[AdChG, N-(cyclohexyl)-N'-(adamant-1-yl)guanidine]", "values": [
      {"measurement": "IC50", "setting": "[1]", "value": 12.5, "unit": "nM"}
    ]},
    {"compound": "NC(=Nc1ccccc1I)NC12CC3CC(CC(C3)C1)C2", "note": "[AdIpG, N-(2-iodophenyl)-N'-(adamant-1-yl)guanidine]", "values": [
      {"measurement": "anxiolytic activity when orally administered", "setting": "[2]; orally administered, 1 mg/kg", "value": "anxiolytic activity"},
      {"measurement": "latency to entering the dark compartment in comparison to controls", "setting": "[2]; orally administered, 1 mg/kg", "value": "increase"},
      {"measurement": "numbers of line crossings and rears in the light compartment", "setting": "[2]; orally administered, 1 mg/kg", "value": "increase"},
      {"measurement": "numbers of rears and line crossings compared with controls (sedation)", "setting": "[2]; orally administered, 1 mg/kg", "value": "did not decrease significantly"},
      {"measurement": "numbers of line crossings and rears in the light compartment", "setting": "[2]; [5]", "value": "increased at the expense of those in the dark compartment"},
      {"measurement": "proportion of time the mice spent in the larger, lighted area of the test chamber", "setting": "[2]; [5]", "value": "increased, in a dose dependant manner"},
      {"measurement": "latency to entering the dark compartment", "setting": "[2]; [6]", "value": "increased in a dose dependant manner"},
      {"measurement": "numbers of rears and line crossings at the highest dose (sedation)", "setting": "[2]", "value": "did not decrease significantly"},
      {"measurement": "IC50", "setting": "[1]", "value": 6.2, "unit": "nM"}
    ]},
    {"compound": "Cc1ccccc1NC(=N)NC12CC3CC(CC(C3)C1)C2", "note": "[AdTG, N-(o-tolyl)-N'-(adamant-1-yl)guanidine]", "values": [
      {"measurement": "anxiolytic activity when orally administered", "setting": "[2]; orally administered, 1 mg/kg", "value": "anxiolytic activity"},
      {"measurement": "numbers of line crossings and rears in the light compartment", "setting": "[2]; orally administered, 1 mg/kg", "value": "increased at the expense of those in the dark compartment"},
      {"measurement": "proportion of time the mice spent in the larger, lighted area of the box", "setting": "[2]; orally administered, 1 mg/kg", "value": "increased significantly"},
      {"measurement": "numbers of line crossings and rears in the light compartment", "setting": "[2]; [5]", "value": "increased at the expense of those in the dark compartment"},
      {"measurement": "proportion of time the mice spent in the larger, lighted area of the test chamber", "setting": "[2]; [5]", "value": "dose dependently increased"},
      {"measurement": "latency to entering the dark compartment", "setting": "[2]; [6]", "value": "increased in a dose dependant manner"},
      {"measurement": "numbers of rears and line crossings at the highest dose (sedation)", "setting": "[2]", "value": "did not decrease significantly"},
      {"measurement": "social interactions", "setting": "[3]; 0.001-0.1 mg/kg i.p.", "value": "significantly increased"},
      {"measurement": "dose producing about the same result, relative to the dose of diazepam", "setting": "[3]; 1 mg/kg for diazepam and 0.1 mg/kg for N-adamantyl-N'-o-tolylguanidine", "value": "one-tenth"}
    ]},
    {"compound": "N=C1Nc2ccccc2-c2ccccc2N1", "note": "[Bridge-DPG, 2-imino-1,3H-dibenzo[d,f]-[1,3]-diazepine]", "values": [
      {"measurement": "IC50", "setting": "[1]", "value": "> 100000", "unit": "nM"}
    ]},
    {"compound": "N=C(NC12CC3CC(CC(C3)C1)C2)NC12CC3CC(CC(C3)C1)C2", "note": "[DAG, N,N'-di(adamant-1-yl)guanidine]", "values": [
      {"measurement": "anxiolytic activity when orally administered", "setting": "[2]; orally administered, 1 mg/kg", "value": "anxiolytic activity"},
      {"measurement": "latency to entering the dark compartment in comparison to controls", "setting": "[2]; orally administered, 1 mg/kg", "value": "increase"},
      {"measurement": "numbers of line crossings and rears in the light compartment", "setting": "[2]; orally administered, 1 mg/kg", "value": "increase"},
      {"measurement": "numbers of rears and line crossings compared with controls (sedation)", "setting": "[2]; orally administered, 1 mg/kg", "value": "did not decrease significantly"},
      {"measurement": "numbers of line crossings and rears in the light compartment", "setting": "[2]; [5]", "value": "increased at the expense of those in the dark compartment"},
      {"measurement": "proportion of time the mice spent in the larger, lighted area of the test chamber", "setting": "[2]; [5]", "value": "tended to increase"},
      {"measurement": "numbers of rears and line crossings at the highest dose (sedation)", "setting": "[2]", "value": "did not decrease significantly"},
      {"measurement": "latency to entering the dark compartment", "setting": "[2]; peak effect at 0.01 ug/kg, controls 12 sec", "value": 20, "unit": "s"}
    ]},
    {"compound": "Cc1ccccc1NC(=N)NC1CCCCC1", "note": "[DChG, N-(o-tolyl)-N'-(cyclohexyl)guanidine]", "values": [
      {"measurement": "IC50", "setting": "[1]", "value": "86 ± 17", "unit": "nM"}
    ]},
    {"compound": "CNC(=N)NC", "note": "[DMG, N,N'-di(methyl)guanidine]", "values": [
      {"measurement": "IC50", "setting": "[1]", "value": "> 100000", "unit": "nM"}
    ]},
    {"compound": "Cc1cccc(C)c1NC(=N)Nc1c(C)cccc1C", "note": "[DXG, N,N'-di-(2,6-dimethylphenyl)-guanidine]", "values": [
      {"measurement": "IC50", "setting": "[1]", "value": "90 ± 18", "unit": "nM"}
    ]},
    {"compound": "Cc1ccccc1NC(=N)NC1C2CC3CC(C2)CC1C3", "note": "(centres unmarked) [N-(adamant-2-yl)-N'-(2-methylphenyl)guanidine]", "values": [
      {"measurement": "IC50", "setting": "[1]", "value": 7, "unit": "nM"}
    ]},
    {"compound": "N=C(Nc1ccccc1I)NC1C2CC3CC(C2)CC1C3", "note": "(centres unmarked) [N-adamant-2-yl)-N'-(2-iodophenyl)guanidine]", "values": [
      {"measurement": "IC50", "setting": "[1]", "value": 3.5, "unit": "nM"}
    ]},
    {"compound": "Cc1ccccc1NC(=N)NC1CCCCC1", "note": "[N-cyclohexyl-N'-(2-methylphenyl)-guanidine]", "values": [
      {"measurement": "IC50", "setting": "[1]", "value": 13, "unit": "nM"}
    ]},
    {"compound": "Cc1ccccc1NC(=N)Nc1ccc(N)cc1C", "note": "[NH₂-DTG]", "values": [
      {"measurement": "IC50", "setting": "[1]", "value": "280 ± 20", "unit": "nM"}
    ]},
    {"compound": "CN(C)CCCN1c2ccccc2Sc2ccc(Cl)cc21", "note": "[chlorpromazine, reference compound]", "values": [
      {"measurement": "IC50", "setting": "[1]", "value": "1480 ± 265", "unit": "nM"}
    ]},
    {"compound": "CN1C(=O)CN=C(c2ccccc2)c2cc(Cl)ccc21", "note": "[diazepam, reference compound]", "values": [
      {"measurement": "numbers of line crossings and rears in the light compartment", "setting": "[2]; mouse, in vivo", "value": "increased at the expense of those in the dark compartment"},
      {"measurement": "proportion of time the mice spent in the larger, lighted area of the test chamber", "setting": "[2]; mouse, in vivo", "value": "dose-dependently increased"},
      {"measurement": "numbers of rears and line crossings at the highest dose (sedation)", "setting": "[4]", "value": "decreased significantly"},
      {"measurement": "social interactions", "setting": "[3]; diazepam intraperitoneally 0.125-1 mg/kg", "value": "significantly increased"}
    ]},
    {"compound": "CCN1CCCC1CNC(=O)c1cc(S(N)(=O)=O)ccc1OC", "note": "(centres unmarked) [sulpiride, reference compound]", "values": [
      {"measurement": "IC50", "setting": "[1]", "value": "> 100", "unit": "nM"}
    ]},
    {"compound": "O=C1CC2(CCCC2)CC(=O)N1CCCCN1CCN(c2nsc3ccccc23)CC1", "note": "[tiospirone, reference compound]", "values": [
      {"measurement": "IC50", "setting": "[1]", "value": "233 ± 52", "unit": "nM"}
    ]},
    {"compound": "N,N-di(o-tolyl)-guanidine [DTG]", "values": [
      {"measurement": "number of rears, crossings, or the % time in the black compartment", "setting": "[2]; s.c., at the concentrations tested, Figure 7", "value": "did not affect significantly"}
    ]},
    {"compound": "N-(adamant-1-yl)-N'-[(E)-2-phenylethenyl]phenylguanidine", "values": [
      {"measurement": "numbers of line crossings and rears in the light compartment", "setting": "[2]; [5]", "value": "tended to remain the same except at the highest dosage"},
      {"measurement": "proportion of time the mice spent in the larger, lighted area of the test chamber", "setting": "[2]; [5]", "value": "generally did not increase"},
      {"measurement": "numbers of rears and line crossings at the highest dose (sedation)", "setting": "[2]", "value": "did not decrease significantly"},
      {"measurement": "IC50", "setting": "[1]", "value": 1000, "unit": "nM"}
    ]}
  ]
}
